pIC50: −log10 of the molar value.
How the values were obtained:
CYP 2D6 = target: T1, CYP 2D6 (Homo sapiens, UniProt P10635); assay: CYP450 inhibition assay, pooled human liver microsomes; type: in vitro ADME; details: probe dextromethorphan
T1 construct: tissue Sekisui Xeno Tech, LLC; host or cells: pooled human liver microsomes
Protocol: In the CYP inhibition assay, human liver microsomes were incubated with the Cu(II) complex or reference standard. The inhibitory effects of these compounds were investigated against the major CYP isoforms namely 1A2, 2C9, 2C19, 2D6, 2B6, 2C8 and 3A4 with their respective isoform probe substrates in one reaction mixture (pooled probe substrate format using LC-MS/MS).
Pooled human liver microsomes (Sekisui Xeno Tech, LLC., Kansas City, KS, USA) were incubated with different concentrations of Cu(II) complex or reference standards in buffer containing 0.1% DMSO for 10 min at 37°C and the residual enzyme activity was measured using pooled probe substrates method by pooled LC-MS/MS. Briefly, incubation mixtures were prepared in a total volume of 200 μL with final component concentrations as follows: 0.1 M potassium phosphate buffer (pH 7.4), 1.5 mM NADPH, and 0.25 mg/ml HLM. […] After 20 min of incubation, the reactions were terminated by addition of 200 μL ice-cold acetonitrile (Rankem, Avantor Performance Materials India Limited, Andhra Pradesh, India) containing telmisartan and carbamazepine as internal standards (all probe substrates and standards were from Sigma Aldrich). Each reaction mixture was centrifuged at 3,500 rpm for 5 min and the supernatant was subjected to LC-MS/MS analysis. The percent inhibition was calculated using the following equation: %Inhibition=100‑[(activityintestwells/activityinbasalcontrolwells)×100]

[1] = Subacute toxicity, daily for 14 days; type: in vivo, NOD scid gamma female mice; details: 4 and 6 mg/kg ip daily for 14 days
Protocol: For subacute toxicity study, three groups of three NSG female mice each were used. Using the formula from NCI, the low dose and high dose were calculated from the MTD value (17.5 mg/kg estimated above) and these were 4 and 6 mg/kg respectively. Mice in the first two groups were administered intraperitoneally with Cu(II) complex at doses of 4 and 6 mg/kg daily respectively for 14 days, while those in the control group received an equal volume of normal saline. […] No mortality was observed during the course of the study. All mice remained healthy with no obvious differences being noted in the general behavior, physical activities or clinical conditions with respect to the control group. The accumulative intraperitoneal doses administered in these groups were 56.0 and 84.0 mg/kg of the Cu(II) complex, respectively.
Mice were divided into three groups of 3 mice each. The Cu(II) complex was administered intraperitoneally at the doses of 4 and 6 mg/kg daily for 14 days, while the control group received an equal volume of normal saline. […] Signs of toxicity, mortality, body weight, food consumption and water intake were monitored and recorded daily. Adverse effects such as rapid or consistent body weight loss reaching 20%, blood stained discharges, labored breathing, paralysis, anemia, and other signs and symptoms mentioned in the acute toxicity study, was used as criteria for termination. At the end of the experiment, the mice were sacrificed and the major organs including the heart, lung, liver, kidney and spleen were examined for gross and histopathological changes.

[2] = Hematotoxicity evaluation (blood, spleen, bone marrow) in xenograft bearing mice; type: in vivo, NOD scid gamma female mice; details: for Band neutrophil / Basophils / Eosinophils / Hemoglobin / Lymphocytes / MCHC / MCV / Monocytes / PVC / Plasma protein / RBC / Segmented neutrophil / Thrombocytes / WBC: C666-1-GFP-Luc2 xenograft mice, mean ± SEM
Protocol: Values of hematological parameters of mice bearing C666-1-GFP-Luc2, an Epstein-barr virus (EBV) positive NPC cell line xenografts which were treated with 4 and 5 mg/kg of the Cu(II) complex were compared with those from control groups (Table 3). […] This indicated absence of anemia.
We further investigated the effects of Cu(II) complex on spleen and bone marrow (from femur) responses.
Blood samples were collected into BD Microtainer Tubes containing dipotassium EDTA (Becton, Dickinson and Company, New Jersey, USA) and submitted to the Veterinary Laboratory Services Unit, Faculty of Veterinary Medicine, Universiti Putra Malaysia, Serdang, Malaysia, for full blood count (FBC) analysis.
Major organs, bones and excised tumors were preserved in 10% neutral buffered formaldehyde solution (Leica Biosystems, Germany) for 24 to 48 h and subsequently processed into formalin-fixed paraffin-embedded tissue blocks following standard tissue processing protocol using Leica ASP300 S (Leica Biosystems, Nussloch, Germany). Fixed bones (skull, femur and tibia) were decalcified with Surgipath Decalcifier I (Leica Biosystems, Germany) for 4 to 6 h depending on size before tissue processing. After paraffin embedding, tissue blocks were sectioned ([…]) using rotary microtome Microm HM340E (Thermo Scientific, Walldorf, Germany) and stained with hematoxylin and eosin (H&E) dyes using Leica Autostainer XL (Leica Biosystems, Nussloch, Germany) before histopathological examination.
All H&E-stained tissue section slides were examined under Nikon Eclipse Ni microscope (Nikon Instruments Inc., New York, USA) and microscopic images were taken using 20x and 40x objectives. For H&E tumor section slides, the percentage of tumor necrosis was determined qualitatively using microscope by the histopathologist in order to estimate the percentage of necrotic area induced by the Cu(II) complex in the tumors. For determination of femoral bone marrow suppression, low power (10x magnification) objective was used to scan the slides while 100x magnification to assess the degree of cellularity and amount of fat present.

T1 sequence (P10635 whole entry): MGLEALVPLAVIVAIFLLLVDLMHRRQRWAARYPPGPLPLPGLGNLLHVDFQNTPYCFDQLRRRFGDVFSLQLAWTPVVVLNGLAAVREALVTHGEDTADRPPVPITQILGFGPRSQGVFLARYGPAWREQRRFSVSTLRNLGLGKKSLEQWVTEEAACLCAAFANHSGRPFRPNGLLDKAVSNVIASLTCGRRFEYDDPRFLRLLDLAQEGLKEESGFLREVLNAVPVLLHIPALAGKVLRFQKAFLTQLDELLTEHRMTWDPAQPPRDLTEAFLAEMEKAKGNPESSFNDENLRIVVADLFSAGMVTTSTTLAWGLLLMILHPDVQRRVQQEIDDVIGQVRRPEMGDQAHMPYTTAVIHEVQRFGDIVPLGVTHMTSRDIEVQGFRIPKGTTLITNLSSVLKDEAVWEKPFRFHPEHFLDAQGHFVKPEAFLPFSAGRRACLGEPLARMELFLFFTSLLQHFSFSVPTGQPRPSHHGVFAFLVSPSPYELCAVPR

Compound: CC(C)(N)C(=O)[O-].O.O=[N+]([O-])[O-].[Cu+2].c1cnc2c(c1)ccc1cccnc12 [Cu(II) complex, [Cu(phen)(C-dmg)(H2O)]NO3]
- pIC50 (CYP 2D6): 4.99
- Histopathological examination, all organs [1]: no significant morphological changes
- body weight [1]: no significant reduction of body weight
- Mortality ([1]; 14 days further observation): No mortality
- weight of vital organs ([1]; day 28): not significantly affected
- site of injections ([1]; disappeared during the 14-day observation): some inflammation and induration
- Band neutrophil ([2]; 4 mg/kg): 0.1 ± 0.0 x10^9/L
- Basophils ([2]; 4 mg/kg): 0.0 ± 0.0 x10^9/L
- Eosinophils ([2]; 4 mg/kg): 0.0 ± 0.0 x10^9/L
- Hemoglobin ([2]; 4 mg/kg): 126.8 ± 10.0 g/L
- Lymphocytes ([2]; 4 mg/kg): 0.2 ± 0.0 x10^9/L
- MCHC ([2]; 4 mg/kg): 308.5 ± 4.9 g/L
- MCV ([2]; 4 mg/kg): 52.9 ± 1.2 fL
- Monocytes ([2]; 4 mg/kg): 0.2 ± 0.1 x10^9/L
- PVC ([2]; 4 mg/kg): 0.4 ± 0.0 L/L
- Plasma protein ([2]; 4 mg/kg): 59.5 ± 2.2 g/L
- RBC ([2]; 4 mg/kg): 7.8 ± 0.7 x10^12/L
- Segmented neutrophil ([2]; 4 mg/kg): 2.0 ± 0.4 x10^9/L
- Thrombocytes ([2]; 4 mg/kg): 1659.0 ± 120.4 x10^9/L
- WBC ([2]; 4 mg/kg): 2.5 ± 0.5 x10^9/L
- Band neutrophil ([2]; 5 mg/kg): 0.1 ± 0.0 x10^9/L
- Basophils ([2]; 5 mg/kg): 0.0 ± 0.0 x10^9/L
- Eosinophils ([2]; 5 mg/kg): 0.0 ± 0.0 x10^9/L
- Hemoglobin ([2]; 5 mg/kg): 133.7 ± 4.4 g/L
- Lymphocytes ([2]; 5 mg/kg): 0.1 ± 0.0 x10^9/L
- MCHC ([2]; 5 mg/kg): 308.3 ± 5.0 g/L
- MCV ([2]; 5 mg/kg): 56.2 ± 1.8 fL
- Monocytes ([2]; 5 mg/kg): 0.2 ± 0.0 x10^9/L
- PVC ([2]; 5 mg/kg): 0.4 ± 0.0 L/L
- Plasma protein ([2]; 5 mg/kg): 55.7 ± 2.5 g/L
- RBC ([2]; 5 mg/kg): 7.8 ± 0.4 x10^12/L
- Segmented neutrophil ([2]; 5 mg/kg): 2.5 ± 0.2 ^* x10^9/L
- Thrombocytes ([2]; 5 mg/kg): 1288.2 ± 155.8 x10^9/L
- WBC ([2]; 5 mg/kg): 2.9 ± 0.3 ^* x10^9/L
- spleen weight ([2]; C666-1-GFP-Luc2 bearing mice, 5 and 6 mg/kg, vs control groups): significantly lower weight
- spleen weight ([2]; HK1 bearing mice, 4, 6 and 8 mg/kg): did not show weight loss
- bone marrow suppression (femur) ([2]; all treated groups): no evidence of bone marrow suppression

Source: publication PMC5766233, “Ternary copper(II) complex: NCI60 screening, toxicity studies, and evaluation of efficacy in xenograft models of nasopharyngeal carcinoma” (PLoS ONE, 2018)
